Laboratory results as given in ChEMBL document CHEMBL1201862, “PubChem BioAssay data set” (2004).
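Where inhibition never reached the appropriate level, the endpoint shown equals the highest concentration tested. Otherwise, values were interpolated linearly from a five-concentration, 48-hour dose response in 96-well plates. At the GI50, growth is halved.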 Calls of active or inactive are those of the source. Rule as the data show it: active = GI50 up to about 1.1 µM and inactive = higher.

Tests used:
Test in all cases: NCI anticancer screen, dose series, 48 h
786-0 = system: 786-0
A498 = system: A498
A549 = system: A549
ACHN = system: ACHN
BT-549 = system: BT-549
CAKI-1 = system: CAKI-1
CCRF-CEM = system: CCRF-CEM
COLO 205 = system: COLO 205
DU-145 = system: DU-145
EKVX = system: EKVX
HCC 2998 = system: HCC 2998
HCT-116 = system: HCT-116
HCT-15 = system: HCT-15
HL-60 = system: HL-60
HOP-62 = system: HOP-62
HOP-92 = system: HOP-92
HT-29 = system: HT-29
Hs-578T = system: Hs-578T
IGROV-1 = system: IGROV-1
K562 = system: K562
KM12 = system: KM12
LOX IMVI = system: LOX IMVI
M14 = system: M14
MCF7 = system: MCF7
MDA-MB-231 = system: MDA-MB-231
MDA-MB-435 = system: MDA-MB-435
MDA-N = system: MDA-N
MOLT-4 = system: MOLT-4
Malme-3M = system: Malme-3M
NCI-H226 = system: NCI-H226
NCI-H23 = system: NCI-H23
NCI-H460 = system: NCI-H460
NCI-H522 = system: NCI-H522
NCI/ADR-RES = system: NCI/ADR-RES
OVCAR-3 = system: OVCAR-3
OVCAR-4 = system: OVCAR-4
OVCAR-5 = system: OVCAR-5
OVCAR-8 = system: OVCAR-8
PC-3 = system: PC-3
RPMI-8226 = system: RPMI-8226
RXF 393 = system: RXF 393
SF-268 = system: SF-268
SF-295 = system: SF-295
SF-539 = system: SF-539
SK-MEL-28 = system: SK-MEL-28
SK-MEL-2 = system: SK-MEL-2
SK-MEL-5 = system: SK-MEL-5
SK-OV-3 = system: SK-OV-3
SN12C = system: SN12C
SNB-19 = system: SNB-19
SNB-75 = system: SNB-75
SR = system: SR
SW-620 = system: SW-620
T47D = system: T47D
TK-10 = system: TK-10
U-251 = system: U-251
UACC-257 = system: UACC-257
UACC-62 = system: UACC-62
UO-31 = system: UO-31

CCOC(=O)C1=C(C(=O)OCC)SC2(S1)C(C(=O)OCC)=C(C(=O)OCC)Sc1c2ssc1=O
GI50 (786-0): 0.811 µM (active) | GI50 (A498): 6.15 µM (inactive) | GI50 (A549): 2.26 µM (inactive) | GI50 (ACHN): 1.72 µM (inactive) | GI50 (BT-549): 1.94 µM (inactive) | GI50 (CAKI-1): 2.42 µM (inactive) | GI50 (CCRF-CEM): 0.16 µM (active) | GI50 (COLO 205): 1.84 µM (inactive) | GI50 (DU-145): 0.857 µM (active) | GI50 (EKVX): 2.34 µM (inactive) | GI50 (HCC 2998): 2.42 µM (inactive) | GI50 (HCT-116): 0.815 µM (active) | GI50 (HCT-15): 0.912 µM | GI50 (HL-60): 0.279 µM (active) | GI50 (HOP-62): 1.67 µM (inactive) | GI50 (HOP-92): 1.35 µM (inactive) | GI50 (HT-29): 1.76 µM (inactive) | GI50 (Hs-578T): 1.97 µM (inactive) | GI50 (IGROV-1): 0.764 µM (active) | GI50 (K562): 0.474 µM (active) | GI50 (KM12): 4.52 µM (inactive) | GI50 (LOX IMVI): 0.239 µM (active) | GI50 (M14): 2.04 µM (inactive) | GI50 (MCF7): 1.74 µM (inactive) | GI50 (MDA-MB-231): 2 µM (inactive) | GI50 (MDA-MB-435): 1.99 µM (inactive) | GI50 (MDA-N): 1.97 µM (inactive) | GI50 (MOLT-4): 0.226 µM (active) | GI50 (Malme-3M): 1.98 µM (inactive) | GI50 (NCI-H226): 22.1 µM (inactive) | GI50 (NCI-H23): 1.93 µM (inactive) | GI50 (NCI-H460): 8.51 µM (inactive) | GI50 (NCI-H522): 1.36 µM (inactive) | GI50 (NCI/ADR-RES): 2.71 µM (inactive) | GI50 (OVCAR-3): 1.69 µM (inactive) | GI50 (OVCAR-4): 1.27 µM (inactive) | GI50 (OVCAR-5): 4.7 µM (inactive) | GI50 (OVCAR-8): 1.6 µM (inactive) | GI50 (PC-3): 1.44 µM (inactive) | GI50 (RPMI-8226): 1.59 µM (inactive) | GI50 (RXF 393): 1.03 µM (active) | GI50 (SF-268): 1.97 µM (inactive) | GI50 (SF-295): 15 µM (inactive) | GI50 (SF-539): 0.845 µM (active) | GI50 (SK-MEL-28): 1.84 µM (inactive) | GI50 (SK-MEL-2): 2.17 µM (inactive) | GI50 (SK-MEL-5): 2.03 µM (inactive) | GI50 (SK-OV-3): 6.12 µM (inactive) | GI50 (SN12C): 0.918 µM (active) | GI50 (SNB-19): 3.84 µM (inactive) | GI50 (SNB-75): 1.85 µM (inactive) | GI50 (SR): < 0.01 µM (active) | GI50 (SW-620): 0.361 µM (active) | GI50 (T47D): 1.76 µM (inactive) | GI50 (TK-10): 1.73 µM (inactive) | GI50 (U-251): 1.93 µM (inactive) | GI50 (UACC-257): 1.6 µM (inactive) | GI50 (UACC-62): 1.94 µM (inactive) | GI50 (UO-31): 1.54 µM (inactive)

CCOC(=O)Nc1cc2ccccc2c(/N=N/c2ccccc2)c1O
GI50 (786-0): 34.8 µM (inactive) | GI50 (A498): > 100 µM (inactive) | GI50 (A549): > 100 µM (inactive) | GI50 (ACHN): > 100 µM (inactive) | GI50 (BT-549): > 100 µM (inactive) | GI50 (CAKI-1): 75.3 µM (inactive) | GI50 (CCRF-CEM): > 100 µM (inactive) | GI50 (COLO 205): > 100 µM (inactive) | GI50 (DU-145): > 100 µM (inactive) | GI50 (EKVX): > 100 µM (inactive) | GI50 (HCC 2998): > 100 µM (inactive) | GI50 (HCT-116): > 100 µM (inactive) | GI50 (HCT-15): > 100 µM | GI50 (HL-60): > 100 µM (inactive) | GI50 (HOP-62): 27.9 µM (inactive) | GI50 (HOP-92): 88.7 µM (inactive) | GI50 (HT-29): > 100 µM (inactive) | GI50 (Hs-578T): 25.2 µM (inactive) | GI50 (IGROV-1): 59.7 µM (inactive) | GI50 (K562): > 100 µM (inactive) | GI50 (KM12): > 100 µM (inactive) | GI50 (M14): > 100 µM (inactive) | GI50 (MCF7): 56.4 µM (inactive) | GI50 (MDA-MB-231): > 100 µM (inactive) | GI50 (MDA-MB-435): > 100 µM (inactive) | GI50 (MDA-N): > 100 µM (inactive) | GI50 (MOLT-4): > 100 µM (inactive) | GI50 (Malme-3M): 55.6 µM (inactive) | GI50 (NCI-H226): > 100 µM (inactive) | GI50 (NCI-H23): > 100 µM (inactive) | GI50 (NCI-H460): > 100 µM (inactive) | GI50 (NCI-H522): 29.6 µM (inactive) | GI50 (NCI/ADR-RES): > 100 µM (inactive) | GI50 (OVCAR-3): > 100 µM (inactive) | GI50 (OVCAR-4): 20.2 µM (inactive) | GI50 (OVCAR-5): > 100 µM (inactive) | GI50 (OVCAR-8): 37.2 µM (inactive) | GI50 (PC-3): > 100 µM (inactive) | GI50 (RPMI-8226): > 100 µM (inactive) | GI50 (RXF 393): 20.7 µM (inactive) | GI50 (SF-268): 58.2 µM (inactive) | GI50 (SF-295): 31.7 µM (inactive) | GI50 (SF-539): 13 µM (inactive) | GI50 (SK-MEL-28): > 100 µM (inactive) | GI50 (SK-MEL-2): > 100 µM (inactive) | GI50 (SK-MEL-5): > 100 µM (inactive) | GI50 (SK-OV-3): 17.2 µM (inactive) | GI50 (SN12C): > 100 µM (inactive) | GI50 (SNB-19): 84.1 µM (inactive) | GI50 (SNB-75): 31 µM (inactive) | GI50 (SR): > 100 µM (inactive) | GI50 (SW-620): > 100 µM (inactive) | GI50 (T47D): 91.4 µM (inactive) | GI50 (TK-10): > 100 µM (inactive) | GI50 (U-251): 26.5 µM (inactive) | GI50 (UACC-257): > 100 µM (inactive) | GI50 (UACC-62): > 100 µM (inactive) | GI50 (UO-31): > 100 µM (inactive)
